The values below come from PMC10859961, “Ir(III) Half-Sandwich Photosensitizers with a π-Expansive Ligand for Efficient Anticancer Photodynamic Therapy” (Journal of Medicinal Chemistry, 2024).

Data set [1] concerns porcine red blood cells (RBC). As to the kind of experiment: Hemolytic activity (hemoglobin release). The format is cell-based. The note with it: dark, 1 hour. How it is done: The hemolytic activities of the complexes were determined by measuring hemoglobin release from porcine red blood cells (RBC). First, fresh porcine blood commercially obtained was diluted to 5% v/v in PBS solution and washed three times with PBS by centrifugation at 1000 rcf for 10 min. Then, RBC suspension (150 μL) was mixed with 150 μL of each complex at concentrations ranging from 1 to 50 μM. A solution of 0.2% Triton X-100 in PBS was used as positive control to induce complete hemolysis. PBS alone was used as negative control. Samples were incubated at 37 °C for 1 h in an orbital shaker (50 rpm) and then centrifuged at 3500 rcf for 10 min. 80 μL aliquots of the supernatant were transferred to a 96-well plate and diluted with 80 μL of Milli-Q water. Hemolysis was evaluated by measuring the absorbance of the samples at 540 nm with a Synergy 4 plate reader (BioTek, Winooski). The percentage of hemolysis (H) was calculated using eq 4: [drawing 25] 4 where As is the absorbance for a given sample, An is the absorbance for the negative control, and Ap is the absorbance for the positive control. Each sample was tested in triplicate.

Data set [2] concerns A549 cancer cells. As to the kind of experiment: MTT cell viability assay, dark or photoactivated. The note with it: A549, MTT; for IC50: 4 h incubation. The format is cell-based, human. How it is done:
Cells were cultured in 96-well plates at a density of 3000 (A549), 2500 (HeLa), or 5000 (PC-3, 1BR.3.G, and MRC-5) cells per well in cell culture medium and allowed to attach for 24 h. Solutions of the complexes at different concentrations were prepared for cell treatments. In all cases, the solid compounds were weighed using an analytical balance (Mettler Toledo AX205DR) to ensure precise measurements. Subsequently, 5 mM solutions were prepared using DMSO. Solutions were then diluted in water to reach a concentration of 1 mM and then, aliquots were taken and diluted in culture medium to obtain solutions ranging from 0 to 50 μM. […] The cells were treated with these solutions in dark conditions or following the photoactivation protocol (see below). 48 h later the treatments were removed, and cells were washed with phosphate-buffered saline (PBS).
Initially, the effect of the complexes on the cell viability was determined by the 3-(4,5-dimethylthiazol-2-yl)-2,5-diphenyltetrazolium bromide (MTT) assay.[147] The cells were incubated for 2 h with 100 μL of culture medium together with 10 μL of MTT (Sigma-Aldrich) at 0.5 mg/mL. After discarding the medium, DMSO was added to each well to dissolve the purple formazan crystals. The absorbance of each well was determined on a Multiscan Plate Reader (Synergy 4, Biotek, Winooski) at a wavelength of 570 nm. Cell viability was also assessed using the CyQUANT Direct Cell Proliferation Assay (Thermo Fisher Scientific), following the manufacturer’s instructions. Briefly, after the treatments, the cells were washed with PBS, and an equal volume of culture medium and CyQUANT mix was added to each well. The plates were then incubated for 1 h at 37 °C. Subsequently, the fluorescence intensity was bottom read using a Multiscan Plate Reader (Synergy 4, Biotek, Winooski) with excitation and emission filters of 485 and 528 nm, respectively. In both assays, at least three replicates were measured for each treatment. The concentration that reduces the cell viability by 50% (IC50) was established using the Gen5 software (BioTek). Three independent experiments were carried out for each compound. […] The phototoxicity index (PI = IC50,dark/IC50,light) was determined.
To assess the photodynamic activity of the complexes, cells were incubated with the complexes for 4 h to enable their intracellular accumulation. The cells were then irradiated with light with a wavelength of 460 nm (blue), 530 nm (green), or 655 nm (red) for 1 h using a LED system (LuxLight) with an effective power of 6.7 mW cm^–2, which provides a total light dose of 24.1 J cm^–2. The LED system was positioned at 25 mm from the cell culture plates.
A general note: Tetrazolium assays rely on reduction of a dye to a coloured formazan, in cell work by metabolically active cells.

For data set [3], the system named is A549 cells. As to the kind of experiment: Cell death mechanism (Annexin V-FITC / propidium iodide). The format is cell-based, human. The note with it: positive control 50 μM for 24 h. The method, then:
The cell death mechanism was analyzed with the Vybrant Apoptosis Assay Kit (Molecular Probes). A549 cells seeded in 12-well plates at a density of 1 × 10^5 cells per well were treated with complex 6 at the corresponding IC50,light × 5 under photoactivation conditions. Cisplatin at 50 μM was used as positive control. 4 and 20 h after the irradiation, cells were collected by trypsinization and immediately stained with Annexin V-FITC and propidium iodide according to the manufacturer’s instructions. The median fluorescence of 10,000 cells of each sample was analyzed by flow cytometry. Annexin-FITC staining was detected at a wavelength of 520 nm (FL1) and propidium iodide was detected at 617 nm (FL2).

The subject of data set [4] is CT26. On the set-up: method as in p (Pozza et al., Inorg. Chem. 2023). The note with it: 540 nm, dose 9 J cm‐2, ref p (Pozza et al., Inorg. Chem. 2023); cited from earlier work.
Data set [5] is described as follows: Photocatalytic NADH oxidation (UV-vis). The arrangement: key: TON = ΔNADH concentration after 1 h / photocatalyst concentration. The note with it: first hour, complex 2.5 μM, NADH 100 μM. The format is biochemical. The method, then:
Fresh stock solutions of the complexes at 7.50 μM in H2O/MeOH mixture (97.5/2.5, v/v) and NADH at 300 μM in H2O/MeOH mixture (97.5/2.5, v/v) were prepared. In a quartz cell, 1 mL of complex solution, 1 mL of NADH solution, and 1 mL of solvent mixture were mixed to prepare a final solution with 2.50 μM complex and 100 μM NADH (complex/NADH rate = 1/40). The solutions were studied by recording UV–vis absorption spectra in dark conditions and under blue light irradiation (λexc = 470 nm, “Medusa” photoreactor) at ambient temperature and various time intervals for 8 h. In addition, a solution of NADH at 100 μM was studied under blue light irradiation to confirm its photostability. The photocatalytic rate of the photosensitizers was evaluated by monitoring its absorbance decrease at 340 nm, which correspond to NADH oxidation.
The turnover numbers (TONs) of complexes were calculated by measuring the absorption difference at 340 nm after 1 h of reaction. TON was calculated from the difference in NADH concentration after 1 h divided by the concentration of photocatalyst (eq 5), where b is the optical path length (1 cm). The concentration of NADH was obtained using the extinction coefficient ε340 = 5751 M^–1 cm^–1.[40],[148] [drawing 26] 5

A short description of data set [6]: 1O2 quantum yield determination with DPBF. The conditions noted are these: acetonitrile; 470 nm blue light. How it is done:
It was performed for complexes 1–8 in acetonitrile according to a relative procedure adapted from the literature[132]−[134] based on monitoring the oxidation of 1,3-diphenylisobenzofuran (DPBF, yellow) to 1,2-dibenzoylbenzene (colorless) photosensitized by the Ir(III) complexes. DPBF was used as an ^1O2 scavenger due to its fast reaction with this molecule. Fresh stock air-equilibrated solutions of photosensitizers (6.00 × 10^–6 M) and DPBF (1.50 × 10^–4 M) in acetonitrile were prepared. In a quartz cell, 1 mL of DPBF solution, 0.5 mL of complex solution, and 1.5 mL of acetonitrile were mixed to prepare a final solution with 5.00 × 10^–5 M DPBF and 1.00 × 10^–6 M complex. The final solutions were studied by recording UV–vis absorption spectra at room temperature in dark conditions (over a period of 6 min with time intervals of 2 min), under blue light irradiation (λexc = 470 nm, “Medusa” photoreactor) and under green light irradiation (λexc = 530 nm, “Medusa” photoreactor) for 5 s irradiation intervals during a total exposure period of 20 s. Absorption UV–vis spectra were recorded after every irradiation interval.
The consumption of DPBF probe was measured by monitoring its absorbance intensity decrease at 410 nm with irradiation time. ^1O2 generation quantum yield (ϕΔ) was calculated from eq 1 using Rose Bengal or [Ru(bpy)3]^2+ as reference for complexes with pbpz and pbpn ligands, respectively: [drawing 22] 1 where s and ref subscripts correspond to the complex and the reference, ϕΔ is the ^1O2 generation quantum yield (0.53 for Rose Bengal[135] and 0.56 for [Ru(bpy)3]Cl2[132] in degassed acetonitrile), S is the slope of the plots of the −ln(normalized absorbance) of DPBF at 410 nm vs the irradiation time, and F is the correction factor of absorption, which is given by F = 1–10^–O.D. (where O.D. is the optical density at 470 nm of solutions of complexes and references). The reproducibility of the results was confirmed by performing each experiment three times.
The stability of DPBF probe was studied in dark conditions and under light irradiation. In dark conditions and under green light irradiation the probe remains unaltered. However, under blue light irradiation, a photobleaching of DPBF was observed. Probe consumption was approximately 6.5% every 5 s. Therefore, a working interval of 20 s was chosen, where 75% of the probe remains stable. To calculate the ϕΔ, a correction factor was applied to the absorbance at 410 nm: a 6.5% of the previous value was added to each absorbance to counteract self-consumption of the probe (i.e., to the absorbance at 10 s, a 6.5% of the absorbance at 5 s was added).

Data set [7] deals with calf thymus DNA (CT-DNA). As to the kind of experiment: Competitive EtBr displacement assay. The note with it: CT-DNA saturated with EtBr; 1 h, room temperature; read-out: C50 (50% reduction of EtBr fluorescence). The format is binding. The method, then:
To investigate the capacity of the complexes to intercalate into DNA, the competitive ethidium displacement assay was carried out as previously described[149] with minor modifications. Stock solutions of 20 μM calf thymus DNA (CT-DNA) and 25 μM Ethidium bromide (EtBr) were prepared in saline TE (50 mM NaCl, 10 mM tris(hydroxymethyl) aminomethane–HCl, 0.1 mM ethylenediaminetetracetic acid (EDTA), pH 7.4). Serial dilutions of metal complexes were prepared at concentrations ranging from 20 to 400 μM from a 1 mM stock solution containing 20% DMSO. The assay was carried out by mixing 25 μL of CT-DNA and 25 μL of EtBr with 50 μL of each compound dilution, on a black 96-well plate. The plate was incubated at room temperature for 1 h and the fluorescence was measured on a Synergy 4 microplate reader (Biotek, Winooski), with excitation wavelength set to 500 nm, and emission wavelength set to 530–800 nm. The fluorescence emission at 590 nm was used to measure the C50, corresponding to the concentration of compound required to induce a 50% decrease in the fluorescence of the EtBr. Experiments were performed in triplicate.

Data set [8] has as its system A549 cells. As to the kind of experiment: Mitochondrial membrane potential (JC-1, flow cytometry). The format is cell-based, human. The note with it: positive control, 5 μM, 30 min. How it is done: A549 cells were seeded onto 24-well plates. 24 h later, cells were incubated for 4 h with complexes 2, 4, 6, and 8 at 10 nM and then photoactivated or kept in the dark for an additional hour. Next, the cells were washed with PBS and harvested by trypsinization. Mitochondrial membrane potential changes were immediately measured by the JC-1 (5,5′,6,6′-tetrachloro-1,1′,3,3′-tetraethylbenzimidazolocarbo-cyanine iodide) Mitochondrial Membrane Potential Detection Kit (Biotium), according to the manufacturer’s instructions. As positive control, the cells were coincubated with CCCP (Sigma) at 5 μM for 30 min to disrupt the mitochondrial membrane potential. For each treatment, the fluorescence of 1 × 10^4 cells was analyzed by a Novocyte flow cytometer. JC-1 red aggregates were detected at a wavelength of 590 nm (FL2) and JC-1 green monomers at 529 nm (FL1).

Where [9] appears, read: kept in the dark, viability after 48 h, read-out: IC50 dark.
The mark [10] stands for this setting: blue light 460 nm 1 h (24.1 J cm^–2), 48 h, read-out: IC50 blue light.

Like-named read-outs stand apart in the source and are kept apart here.

In the case of `N.N.[Cl][Pt][Cl]` [Cisplatin, reference compound], the Hemolytic activity in data set [1] (1 μM) was found to be 0%; in data set [1] (5 μM), 0%; in data set [1] (10 μM), 0%; in data set [1] (25 μM), 0.2%. Besides, the IC50 in data set [2] (setting [9]) amounted to 8.9 ± 2 µM. Besides, the “cells in early apoptosis (AN+; IP−), lower right quadrant” value in data set [3] is 5.3%. For the same molecule, in data set [3], the “cells in late apoptosis (AN+; IP+), upper right quadrant” value came out at 26.1%. Besides, the “cells in necrosis (AN–; IP+), upper left quadrant” value in data set [3] was 6.6%.

`[Ru+2].c1ccc(-c2ccnc3c2ccc2c(-c4ccccc4)ccnc23)cc1.c1ccc(-c2ccnc3c2ccc2c(-c4ccccc4)ccnc23)cc1.c1cnc2c(c1)ccc1cccnc12` [[Ru(DIP)2(phen)]2+]: in data set [4], the PI is reported as 1111 and the PI/Dose is on record as 123.4.

As to `Cc1c(C)c(C)[c-](C)c1C.F[B-](F)(F)F.c1ccc2nc3c4ccc[n+]5c4c4[c](cccc4c3nc2c1)[Ir]5[n+]1cc[nH]c1` [complex 3, [(η^5-C5Me5)Ir(Im)(pbpz)]BF4], the “TON1h (NADH oxidation)” value amounted to 2.28 in data set [5] (470 nm blue light) and 0.47 in data set [5] (dark). For the same molecule, in data set [6], the “1O2 generation quantum yield (ϕΔ), DPBF” value amounted to 0.0399. In addition, the IC50 was 1.2 ± 0.1 µM in data set [2] (setting [10]); 2.5 ± 0.3 µM in data set [2] (green light 530 nm 1 h (24.1 J cm^–2), 48 h, read-out: IC50 green light); 4.9 ± 0.7 µM in data set [2] (setting [9]); 16.1 µM in data set [7]. Also, the “PI green light (IC50,dark/IC50,light)” value in data set [2] (green light 530 nm, 24.1 J cm^–2) is given as 2.0.

Consider [(η^5-C5Me5)Ir(bhq)Cl] [complex 10], for which the IC50 in data set [2] (setting [10]) turned out to be 5.6 ± 0.4 µM; in data set [2] (setting [9]) it was 10 ± 0.3 µM. For the same molecule, in data set [2] (blue light 460 nm, 24.1 J cm^–2), the “PI blue light (IC50,dark/IC50,light)” value is 1.8.

As to `N#CC(C#N)=NNc1cccc(Cl)c1` [CCCP, carbonyl cyanide m-chlorophenyl hydrazone, reference compound], the “cells with red fluorescence (JC-1 aggregates), upper right quadrant” value in data set [8] is 21.9%.
